Results: patent publication US11952587B2, “Method for producing platelets” (KYOTO UNIVERSITY, priority 2017, dated 2024)

Columns and labels:
[1] = test system: imMKCL; assay: HDAC6 inhibitor addition in static culture: cell morphology by microscope; format: cell-based, human; conditions: for degree of hypertrophy: versus DMSO group; for cell morphology (apoptosis, hypertrophy): Day 3 from gene off; for PPF associated with megakaryocyte maturation: Day 5 from gene off
Procedure: To confirm if apoptosis was caused due to the drug addition, cell morphology was observed when dimethyl sulfoxide (DMSO) was used as a solvent control of the drug or an HDAC6 inhibitor was added at the time of starting the culture in the platelet producing medium in a static culture under the same conditions as above. […] In the photograph, cell hypertrophy associated with megakaryocyte maturation is observed. […] PPF associated with megakaryocyte maturation is recognized. FIG. 24, panels (e) and (f) show cell morphology on Day 5 from the gene off static culture to which BML-281 100 nM was added and to which Nexturastat A 2 μM was added, respectively. […] Additionally, when an HDAC6 inhibitor was added, the degree of megakaryocyte maturation is rather hindered but proceeds to hypertrophy. Based on the above findings, HDAC6, seems to have role in the proplatelet formation.

[2] = test system: imMKCL; assay: HDAC6 inhibitor addition in shaking flask culture: number of platelets; format: cell-based, human; conditions: for number of platelets produced: added in a concentration of 100 nM or more to a medium
Procedure: After turning genes (c-MYC, BMI1, and BCL-XL) off, 1×10^5 cells/ml of imMKCL was seeded in a flask to carry out shaking flask culture using a platelet producing medium. The culture was carried out under the shaking conditions of 100 rpm, 37° C., and 5% CO2. To the platelet producing medium, BML-281 1 nM, 10 nM, or 100 nM, or Nexturastat A 20 nM was added as an HDAC6 inhibitor at the time of starting the culture. […] The number of platelets was measured on Day 6 after addition of these HDAC6 inhibitors.
(§1) After turning genes (c-MYC, BMI1, and BCL-XL) off, 1×10^5 cells/ml of imMKCL was seeded in a flask to carry out shaking flask culture using a platelet producing medium under a shaking condition of 100 rpm. Further, after turning genes (c-MYC, BMI1, and BCL-XL) off, 1×10^5 cells/ml of imMKCL was seeded in a culture dish to carry out static culture. For both shaking culture and static culture, BML-281 100 nM, or Nexturastat A 500 nM, 1 μM, or 2 μM was added at the time of starting the cultures. The number of platelets was measured on Day 6 from addition of these HDAC6 inhibitors. Additionally, Annexin V positive ratios of the obtained platelets were measured.
(§2) Subsequently, in order to examine in more detail which process in megakaryocyte maturation is affected by the HDAC6 inhibitor, the timing of adding Nexturastat A 2 μM during the flask culture was changed to Day 3, Day 4, and Day 5 from the start of the culture after the gene off and the effect on the amount of platelets to be produced was studied. Culture conditions other than the timing of adding HDAC6 inhibitors were the same as those in the experiment referring to FIGS. 21 to 24. […] In FIG. 24, panel (c), PPF was recognized at Day 5 in static culture. In view of this, the effect available at the time of shedding platelets (presumed mechanism) seems to be about 40%.

[3] = target: T1, HDAC6 (Homo sapiens, UniProt Q9UBN7); conditions: cited from earlier work
T1 sequence (Q9UBN7 1-1215): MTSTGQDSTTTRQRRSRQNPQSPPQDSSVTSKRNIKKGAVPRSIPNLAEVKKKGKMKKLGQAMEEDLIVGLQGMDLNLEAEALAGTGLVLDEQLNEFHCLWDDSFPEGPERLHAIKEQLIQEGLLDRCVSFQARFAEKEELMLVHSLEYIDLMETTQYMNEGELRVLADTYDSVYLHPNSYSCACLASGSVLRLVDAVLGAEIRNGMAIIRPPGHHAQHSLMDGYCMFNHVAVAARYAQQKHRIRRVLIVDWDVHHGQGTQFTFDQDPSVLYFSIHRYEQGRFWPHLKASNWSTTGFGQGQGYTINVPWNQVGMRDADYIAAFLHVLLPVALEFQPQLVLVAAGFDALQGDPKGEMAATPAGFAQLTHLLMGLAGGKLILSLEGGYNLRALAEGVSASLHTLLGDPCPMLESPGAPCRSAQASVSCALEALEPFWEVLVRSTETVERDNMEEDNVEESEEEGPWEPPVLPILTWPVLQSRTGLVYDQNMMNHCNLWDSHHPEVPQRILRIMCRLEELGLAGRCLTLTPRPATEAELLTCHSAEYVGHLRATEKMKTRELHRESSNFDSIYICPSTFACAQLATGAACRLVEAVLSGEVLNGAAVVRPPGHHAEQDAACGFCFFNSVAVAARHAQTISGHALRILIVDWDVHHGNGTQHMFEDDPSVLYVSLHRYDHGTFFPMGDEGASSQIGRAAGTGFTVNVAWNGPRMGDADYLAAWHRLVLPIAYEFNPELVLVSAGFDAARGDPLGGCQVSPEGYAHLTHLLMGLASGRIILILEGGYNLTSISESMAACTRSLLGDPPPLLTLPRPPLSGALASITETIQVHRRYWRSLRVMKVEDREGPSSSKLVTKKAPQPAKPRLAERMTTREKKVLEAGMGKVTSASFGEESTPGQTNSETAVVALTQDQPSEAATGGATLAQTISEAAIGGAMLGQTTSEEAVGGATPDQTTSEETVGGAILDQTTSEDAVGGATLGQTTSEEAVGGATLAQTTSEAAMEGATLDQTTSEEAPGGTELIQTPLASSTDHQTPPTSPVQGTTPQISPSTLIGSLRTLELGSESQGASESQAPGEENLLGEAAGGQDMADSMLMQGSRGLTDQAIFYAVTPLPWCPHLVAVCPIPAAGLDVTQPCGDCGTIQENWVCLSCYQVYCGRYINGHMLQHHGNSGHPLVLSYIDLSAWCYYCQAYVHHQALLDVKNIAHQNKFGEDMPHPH

[4] = test system: imMKCL; assay: HDAC6 inhibitor addition in static culture (Dish): number of platelets; format: cell-based, human
Procedure: as §1, §2

Compound	degree of hypertrophy ([1]; Day 3, 100 nM)	cell morphology (apoptosis, hypertrophy) ([1]; 100 nM)	PPF associated with megakaryocyte maturation ([1]; 100 nM)	number of platelets produced [2]	platelet production (number of platelets on Day 6) ([2]; shaking flask culture, 100 nM added at start of culture)	known HDAC inhibition [3]	degree of hypertrophy ([1]; Day 3, 2 μM)	cell morphology (apoptosis, hypertrophy) ([1]; 2 μM)	PPF associated with megakaryocyte maturation ([1]; 2 μM)	reduction of number of platelets produced ([4]; static culture (Dish), 2 μM added on Day 5)	number of platelets produced on Day 6, concentration dependence ([4]; static culture, 500 nM, 1 μM, or 2 μM added at start)	number of platelets produced on Day 6, concentration dependence ([2]; shaking flask culture, 500 nM, 1 μM, or 2 μM added at start)	platelet production (number of platelets on Day 6) ([2]; shaking flask culture, 2 μM added)	platelet production ([2]; shaking flask culture, 2 μM added on Day 0 or Days 3 and 4 after gene off)	platelet production ([2]; shaking flask culture, 2 μM added on Day 5 after gene off)
CC(C)(C)OC(=O)Nc1ccc(-c2cc(C(=O)NCCCCCCC(=O)NO)no2)cc1 [BML-281, N-Hydroxy-7-[5-(4-tertbutoxycarbonylaminophenyl)-3-isoxazolecarboxamido]heptanamide]	slightly lower than the group containing DMSO	Apoptosis is not recognized but cell hypertrophy is recognized	not recognized	considerably suppress the number of platelets produced	notable reduction in the platelet production	inhibit HDAC6, 1, 2, 7, 8, and 10	–	–	–	–	–	–	–	–	–
CCCCN(Cc1ccc(C(=O)NO)cc1)C(=O)Nc1ccccc1 [Nexturastat A, 4-[[Butyl[(phenylamino)carbonyl]amino]methyl]-N-hydroxybenzamide]	–	–	–	considerably suppress the number of platelets produced	–	specifically inhibit HDAC6	slightly lower than the group containing DMSO	Apoptosis was not recognized but cell hypertrophy was observed	not recognized	about 40%	decreases in an inhibitor concentration-dependent manner	decreases in an inhibitor concentration-dependent manner	notable reduction in the platelet production	notable reduction in the platelet production	production equivalent to that in non-addition group
